Measurements as given in patent US20250129069A1, “TRIAZOLO WRN INHIBITORS” (Nimbus Wadjet, Inc., priority 2023, published 2025).
Like-named read-outs stand apart in the source and are kept apart here. Values belong to the compound of their own block, whether it stands above or below them.

Legend:
[1] = test system: p21 induction in HCT 116 cells; assay: p21 induction in cells (In-Cell Western, p21/GAPDH ratio); type: cell-based; settings: 24 h compound incubation, read-out: p21_EC50
Method: The colon carcinoma cell line HCT 116 was obtained from ATCC and cultured in growth medium consisting of Mccoy's 5A Medium (Gibco 16600108) supplemented with 10% FBS (Transgene FS201-02) and 100 units/mL penicillin-streptomycin (Gibco 15140122) and maintained at 37° C. under 5% CO2. On the day of seeding, 2,000 cells in 30 μL of culture media were plated per well to Poly-D-Lysine 384 Well Black Clear Plates (Biocoat 356663) and incubated overnight at 37° C. under 5% CO2. The following day, compounds were serially diluted in DMSO for a total of 11 test concentrations. The typical starting concentration of compounds was 10 μM with 2-fold dilutions. Next, 150 nL of diluted compound was added in duplicate to the assay plate, using an Echo 655 (Labcyte). The plate was centrifuged at 500 RPM for 1 min and then incubated at 37° C. under 5% CO2 for 24 h. After 24 h, medium was removed, and cells were fixed by adding 40 μL of 4% paraformaldehyde solution to each well and incubated for 20 min at room temperature. The plate was then washed 4 times with 100 μL per well of wash buffer (PBS with 0.1% Tween-20) using a microplate washer. Next, 30 μL of ice-cold methanol was added to each well and the plate was incubated at −20° C. for 10 min. The plate was washed 4 times with 100 μL per well of wash buffer by a microplate washer, then 30 μL per well of blocking buffer ((Intercept PBS blocking buffer (LI-COR 927-70001) with 0.05% Tween-20)) was added and the plate was incubated at room temperature with shaking for 2 h. Next, to each test well, 20 μL of primary antibody solution (p21 Wafl/CIP (12D1) RabbitmAb (Cell Signaling Technologies 2947) diluted 1:1000 and GAPDH (D4C6R) Mouse mAb (Cell Signaling Technologies 97166) diluted 1:2000 in blocking buffer) was added and the plate was placed at 4° C., overnight. The following day, the plate was washed 5 times with 100 μL per well of wash buffer using a microplate washer for 5 min. 20 μL per well of secondary antibody (IRDye 680CW Goat anti-Mouse IgG (H+L) (LI-COR 926-68070) diluted 1:2000 in Blocking Buffer and IRDye 800CW Goat anti-Rabbit IgG (H+L) (LI-COR 926-32211) diluted 1:2000 in Blocking Buffer) was then added and the plate was stored for 2 h in the dark at room temperature with shaking. The plate was then washed 4 times with 100 μL per well of wash buffer again using a microplate washer. Finally, the p21 signal and the GAPDH signal were quantified using a LI-COR Odyssey CLx Imager machine reading at 800 nm and 700 nm, respectively. Each plate contained DMSO control (low control) and an internal reference WRN inhibitor (high control) respectively. For quantitation, the 800 nm/700 nm ratio was calculated for each well to give fold p21 induction and then percent activation for each compound well was calculated as follows (100×(ratio cpd well-ratio low control)/(ratio high control−ratio low control). EC50 values for each compound was generated after non-linear regression curve fitting using commercially available software.

[2] = target: human Werner helicase (WRN, amino acids 517-1235 with L1074F point mutation) (Homo sapiens (Human), UniProt Q14191, L1074F); assay: WRN (BV08) ADP-Glo assay; type: biochemical; settings: human WRN (aa 517-1235, L1074F), read-out: ADP-Glo_hWRN_IC50
Excerpt: Bovine skin gelatin (BSG), dimethyl sulfoxide (DMSO), Pluronic F-127 and tris(2-carboxyethyl)phosphine hydrochloride solution (TCEP) were purchased from Sigma-Aldrich (St. Louis, MO) at the highest level of purity possible. Bicine buffer solution was purchased from Alfa Aesar (Tewksbury, MA) and compound NSC-617145 was purchased from Tocris (Minneapolis, MN). DNA duplex was synthesized at BGI (Shenzhen, China) and was composed of strand 1 with the sequence 5′-[…]-3′ (SEQ ID NO.: 1) and strand 2 with the sequence 5′-[…]-3′ (SEQ ID NO.: 2). DNA strands were annealed by heating to 95° C. for 5 minutes followed by slow cooling to room temperature. Compounds in 100% DMSO (0.1 μl) were spotted into a 384-well white polystyrene Optiplate-384 (Perkin Elmer; Waltham, MA) assay plate using a LabCyte Echo 550 (Agilent; Santa Clara, CA). DMSO (0.1 μl) was added to columns 12, rows A-H and column 24, rows I-P for the maximum signal control. Compound NSC-617145 (0.1 μl) was added to columns 12, rows I-P and 24, rows A-H for the minimum signal control (100% inhibition). Compounds/DMSO were preincubated for 15 minutes at 25° C. with 5 μl 2×WRN (BV08), prepared as described below, in assay buffer containing 20 mM Bicine (pH=7.5), 1 mM MgCl2, 10 mM KCl, 0.1% Pluronic F-127, 0.005% BSG, 1 mM TCEP. The reaction was initiated by the addition of 5 μl 2× substrate mixture in assay buffer and incubated for 60 minutes at 25° C. The final concentrations of the assay components were 0.15 nM WRN, 5 μM ATP, and 0.1 nM DNA duplex. The final DMSO concentration was 1% and the reference compound concentration (NSC-617145) used for the minimal signal control was 20 μM. The reaction was stopped by the addition of the ADP-Glo Kit components (Promega; Madison, WI) as directed and the relative luminescence units (RLU) were read on an Envision 2104 (Perkin Elmer; Waltham, MA).
% inhibition calculation:
% INH=(RLU MAX−RLU sample)/(RLU MAX−RLU MIN))×100
Where RLU=relative luminescence units, sample=signal in sample well, and MIN and MAX are the respective minimum and maximum signal controls. Four-parameter IC50 fit equation:
Y=Bottom+(Top−Bottom)/(1+(IC50/X)^Hill Slope)
Where top and bottom are normally allowed to float but may be fixed at 100 or 0 respectively in a 3-parameter fit. Y is the % inhibition and X is the compound concentration.
Molecular Biology and virus production. The DNA encoding human Werner helicase (Uniprot Q14191, amino acids 517-1235 with L1074F point mutation) was generated with codon-optimization for E. coli expression and subcloned into the pFastBac vector with a TEV cleavable 8×His tag (WRN—BV08). The baculovirus from the expression plasmid WRN—BV08 was generated from transfection and amplification following the manufacturer's instructions.
Sf9 cells grown in SF900II media were infected with 1:200 WRN—BV08 P2 virus and incubated for protein expression for 72 h at 27° C. The WRN protein was purified using the following protocol. The cell pellets were thawed and resuspended in buffer A (50 mM Tris, pH 7.5, 500 mM NaCl, 1 mM TCEP, 10% Glycerol) supplemented with 0.5% CHAPS, 1 mM PMSF, […] Leupeptin, 1 μg/ml Pepstatin, and the Pierce Universal Nuclease and cocktail tablet. Cleared lysates were loaded onto a Ni Sepharose™ excel column and washed with buffer A and bound protein was eluted with buffer A supplemented with 300 mM imidazole. The eluted protein was dialyzed against buffer A and digested by His-tagged TEV (1:5 ratio) overnight at 4° C. ZnCl2 was added into the sample at final 15 μM before loading onto a second Ni Sepharose™ excel column. Untagged WRN protein was eluted from the column with buffer A supplemented with 20 mM imidazole, dialyzed overnight into buffer B (50 mM Tris, pH 7.5, 1 mM TCEP, 10% Glycerol) supplemented with 150 mM NaCl and loaded onto a Heparin column. Proteins were eluted with a step gradient of buffer B supplemented with 150 mM, 200 mM, 300 mM and 500 mM NaCl. […]

Sequence of human Werner helicase (WRN, amino acids 517-1235 with L1074F point mutation) (Q14191 other isoform, or with tags, fused parts or gaps L1074F (already in the parent)): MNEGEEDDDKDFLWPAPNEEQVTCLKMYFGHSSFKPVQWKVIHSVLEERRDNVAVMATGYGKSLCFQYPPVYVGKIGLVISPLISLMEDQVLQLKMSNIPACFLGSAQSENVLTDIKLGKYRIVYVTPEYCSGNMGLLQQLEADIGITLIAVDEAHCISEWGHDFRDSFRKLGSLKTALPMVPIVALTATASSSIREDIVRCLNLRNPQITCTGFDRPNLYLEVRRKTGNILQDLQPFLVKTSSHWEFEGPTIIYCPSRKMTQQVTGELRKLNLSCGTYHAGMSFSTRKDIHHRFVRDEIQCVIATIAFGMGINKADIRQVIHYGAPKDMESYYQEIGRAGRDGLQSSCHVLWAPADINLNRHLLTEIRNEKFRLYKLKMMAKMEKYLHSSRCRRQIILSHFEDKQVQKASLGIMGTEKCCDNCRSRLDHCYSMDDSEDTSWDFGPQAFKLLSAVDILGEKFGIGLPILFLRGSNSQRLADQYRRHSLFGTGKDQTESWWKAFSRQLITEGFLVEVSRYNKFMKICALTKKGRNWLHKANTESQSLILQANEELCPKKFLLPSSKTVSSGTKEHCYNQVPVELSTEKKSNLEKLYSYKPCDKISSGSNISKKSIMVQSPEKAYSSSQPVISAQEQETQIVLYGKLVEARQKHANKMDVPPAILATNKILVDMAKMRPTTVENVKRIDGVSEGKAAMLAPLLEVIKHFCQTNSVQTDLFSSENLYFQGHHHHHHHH

IC50 [2]: 5 to 50 nM
SMILES: CCc1c(N2CCN(C(=O)c3ncnc(C)c3O)[C@H]3CC[C@@H]32)c(=O)c2nn(-c3ccnc(OC)c3)nc2n1CC(=O)NC1CC2(CCC2)C1 [Compound I-86, 2-{5-ethyl-6-[(1S,6S)-5-(5-hydroxy-6-methylpyrimidine-4-carbonyl)-2,5-diazabicyclo[4.2.0]octan-2-yl]-2-(2-methoxypyridin-4-yl)-7-oxo-2H,4H,7H-[1,2,3]triazolo[4,5-b]pyridin-4-yl}-N-{spiro[3.3]heptan-2-yl}acetamide]

EC50 ([1]; Homo sapiens): ≤ 500 nM
SMILES: CCc1c(N2CCN(C(=O)c3ncnc(C)c3O)[C@H]3CC[C@@H]32)c(=O)c2nn(C3=CCOC(C)C3)nc2n1CC(=O)NC12CC(C3CC3)(C1)C2 (stereo partly drawn) [Compound I-172, N-{3-cyclopropylbicyclo[1.1.1]pentan-1-yl}-2-{5-ethyl-6-[(1S,6S)-5-(5-hydroxy-6-methylpyrimidine-4-carbonyl)-2,5-diazabicyclo[4.2.0]octan-2-yl]-2-(2-methyl-3,6-dihydro-2H-pyran-4-yl)-7-oxo-2H,4H,7H-[1,2,3]triazolo[4,5-b]pyridin-4-yl}acetamide]

EC50 ([1]; Homo sapiens): ≤ 500 nM
SMILES: CCc1c(N2CCN(C(=O)c3ncnc(C)c3O)[C@H]3CC[C@@H]32)c(=O)c2nn(C3=CCN(CC(F)F)CC3)nc2n1CC(=O)NC12CC(C3CC3)(C1)C2 [Compound I-185, N-{3-cyclopropylbicyclo[1.1.1]pentan-1-yl}-2-{2-[1-(2,2-difluoroethyl)-1,2,3,6-tetrahydropyridin-4-yl]-5-ethyl-6-[(1S,6S)-5-(5-hydroxy-6-methylpyrimidine-4-carbonyl)-2,5-diazabicyclo[4.2.0]octan-2-yl]-7-oxo-2H,4H,7H-[1,2,3]triazolo[4,5-b]pyridin-4-yl}acetamide]

EC50 ([1]; Homo sapiens): ≤ 500 nM
SMILES: CCc1c(N2CCN(C(=O)c3c(O)c(F)cc4ncoc34)[C@H]3CC[C@@H]32)c(=O)c2nn(C3=CCOCC3)nc2n1CC(=O)NC12CC(C3CC3)(C1)C2 [Compound I-194, N-{3-cyclopropylbicyclo[1.1.1]pentan-1-yl}-2-[2-(3,6-dihydro-2H-pyran-4-yl)-5-ethyl-6-[(1S,6S)-5-(5-fluoro-6-hydroxy-1,3-benzoxazole-7-carbonyl)-2,5-diazabicyclo[4.2.0]octan-2-yl]-7-oxo-2H,4H,7H-[1,2,3]triazolo[4,5-b]pyridin-4-yl]acetamide]

EC50 ([1]; Homo sapiens): ≤ 500 nM
SMILES: CCc1c(N2CCN(C(=O)c3ncnc(C)c3O)[C@H]3CC[C@@H]32)c(=O)c2nn(C3=CCOCC3)nc2n1CC(=O)NC1CC2(CCC2)C1 [Compound I-197, 2-[2-(3,6-dihydro-2H-pyran-4-yl)-5-ethyl-6-[(1S,6S)-5-(5-hydroxy-6-methylpyrimidine-4-carbonyl)-2,5-diazabicyclo[4.2.0]octan-2-yl]-7-oxo-2H,4H,7H-[1,2,3]triazolo[4,5-b]pyridin-4-yl]-N-{spiro[3.3]heptan-2-yl}acetamide]

Further lines, the compound ahead of its results:

SMILES: CCc1c(C2=CCN(C(=O)c3ncnc(C)c3O)C[C@H]2C)c(=O)c2nn(-c3ccnc(OC)c3)nc2n1CC(=O)NC12CC(C(C)C)(C1)C2 (single isomer, unassigned) [Compound I-80]
EC50 ([1]; Homo sapiens): ≤ 500 nM
IC50 [2]: 5 to 50 nM

SMILES: CCc1c(N2CCN(C(=O)c3ncnc(C)c3O)[C@H]3CC[C@@H]32)c(=O)c2nn(-c3ccnc(OC)c3)nc2n1CC(=O)Nc1ccc(C(F)(F)F)cc1Cl [Compound I-6, N-(2-chloro-4-(trifluoromethyl)phenyl)-2-(5-ethyl-6-((1S,6S)-5-(5-hydroxy-6-methylpyrimidine-4-carbonyl)-2,5-diazabicyclo[4.2.0]octan-2-yl)-2-(2-methoxypyridin-4-yl)-7-oxo-2,7-dihydro-4H-[1,2,3]triazolo[4,5-b]pyridin-4-yl)acetamide]
IC50 [2]: ≤ 5 nM

SMILES: CCc1c(N2CCN(C(=O)c3ncnc(C)c3O)CC2)c(=O)c2nn(C3=CCOCC3)nc2n1CC(=O)Nc1ccc(C(F)(F)F)cc1Cl [Compound I-13, N-(2-chloro-4-(trifluoromethyl)phenyl)-2-(2-(3,6-dihydro-2H-pyran-4-yl)-5-ethyl-6-(4-(5-hydroxy-6-methylpyrimidine-4-carbonyl)piperazin-1-yl)-7-oxo-2,7-dihydro-4H-[1,2,3]triazolo[4,5-b]pyridin-4-yl)acetamide]
IC50 [2]: 5 to 50 nM

SMILES: CCc1c(N2CCN(C(=O)c3ncnc(C)c3O)[C@H]3CC[C@@H]32)c(=O)c2nn([C@@H]3CC3(F)F)nc2n1CC(=O)Nc1ccc(C(F)(F)F)cc1Cl (single isomer, unassigned) [Compound I-216]
EC50 [1]: ≤ 500 nM

SMILES: CCc1c(N2CCN(C(=O)c3ncnc(C)c3O)CC2)c(=O)c2nn(-c3cc(C)n(C)n3)nc2n1CC(=O)Nc1ccc(C(F)(F)F)cc1Cl [Compound I-16, N-(2-chloro-4-(trifluoromethyl)phenyl)-2-(2-(1,5-dimethyl-1H-pyrazol-3-yl)-5-ethyl-6-(4-(5-hydroxy-6-methylpyrimidine-4-carbonyl)piperazin-1-yl)-7-oxo-2,7-dihydro-4H-[1,2,3]triazolo[4,5-b]pyridin-4-yl)acetamide]
IC50 [2]: 5 to 50 nM
